Measured values taken from US7947854B2, “Bis-cationic compounds and use thereof” (The University of Sydney, priority 2003, dated 2011).

Tests used:
[1] = tested on: membrane-associated phospholipase B (LPL/LPTA activities); experiment: Radiometric assay, membrane-associated LPL/LPTA activities; type: biochemical, Cryptococcus neoformans H99; conditions: pH 4
Procedure: Fungal isolates and media. […] Isolate H99 was kindly supplied by Dr. Gary Cox (Duke University Medical Center, Durham, N.C., USA), and subcultured onto Sabouraud dextrose agar (SDA) at 30° C.
Cellular disruption to prepare membrane and cytosolic fractions. The cell pellet from the preparation of the supernatant, above, was also frozen at −70° C. After washing twice with imidazole buffer, it was disrupted in the presence of a protease inhibitor cocktail (P 8215 for fungal and yeast cells; 4-(2-aminoethyl)benzenesulfonyl fluoride hydrochloride, 100 mM, 1,10-phenanthroline, 500 mM, pepstatin A, 2.2 mM, E-64, 1.4 mM; Sigma) in a MiniBeadbeater-8 Cell Disrupter (MBB-8; Daintree Scientific, Tasmania, Australia) for three cycles of 1 min, alternating with a 1 min cooling period on ice. The homogenate was centrifuged at 14,000 g for 15 min to obtain the membrane (pellet) and the cytosolic (supernatant) fractions.
Secreted LPL and LPTA activities were measured simultaneously in a reaction mixture containing 1-[^14C]palmitoyl lyso-PC (25,000 dpm) and carrier lyso-PC (final concentration 200 μM) in assay buffer. The reaction time was […] with 1 μg of total protein and LPL activity was measured by the rate of loss of 1-[^14C]palmitoyl lyso-PC with release of radiolabelled fatty acids. LPTA activity was estimated from the rate of formation of radiolabelled PC.
All reactions were terminated by adding 0.5 mL of chloroform:methanol (2:1 v/v). The reaction products were extracted by the method as disclosed in Bligh, E. C. and W. J. Dyer. 1959 ‘A rapid method of total lipid extraction and purification.’ Can. J. Biochem. Physiol. 37:911-917, separated by TLC and quantified as previously described. In the case of PLC activity, the TLC plates were developed in petroleum ether (BP 60-80° C.): diethyl ether: acetic acid (90:15:1, v/v/v) instead of chloroform:methanol:water (65:25:4, v/v/v).
All experiments were carried out in duplicate or triplicate. The effects of pH on the various phospholipase activities were measured using 50 mM final concentration of imidazole-acetate buffer (pH range 3-5), MES buffer (pH range 6-8) and glycine buffer (pH 9-10). Controls for non-enzymic breakdown of substrates were included at all pH values. Cations, Triton X-100 and metal chelators were made up as stock solutions in water and diluted to the final concentration in the appropriate assay buffer.
Preparation of inhibitors and use in assays. The following compounds were tested (for structures, see FIG. 2): compound 1, 1,12-bis(tributylphosphonium)dodecane dibromide (Fluka AG, Buchs, Switzerland); compound 2, 1,10-bis(tributylammonium)-decane dibromide; compound 3, 1,12-bis(tributylammonium)do-decane dibromide (both synthesised in-house); compound 4, 1,10-bis(trimethylammonium)decane dibromide [“decamethonium”] (Sigma, St. Louis Mo., USA). All compounds were prepared as stock solutions of 700 μM in assay buffer containing 5 mM EDTA, which was then diluted serially with buffer to obtain solutions of 70, 7, 0.7 and 0.07 μM. In each assay, 45 μL of these solutions was used, and the final volume of 125 μL was made up of substrate, enzyme and buffer. The radiometric assay was carried out as above. Inhibition was calculated as the percent of substrates (DPPC or Lyso-PC) remaining in the case of PLB and LPL activities, or of DPPC produced, in the case of the LPTA activity. The amounts converted, or produced, in the inhibitor-free control were normalised to 100%, and the inhibition calculated against it. All assays were done in triplicate.
Under these conditions only PLB, LPL and LPTA activities (both secreted and cell-associated) were measured. Initially, compounds deemed to be potential inhibitors were assayed at 25 and 250 μM.

[2] = tested on: two strains of C. neoformans and one strain of Candida albicans; experiment: Standardised serial dilution sensitivity test, results stated over all strains; type: cell-based
Procedure: Antifungal susceptibility testing. The antifingal activity of the compounds was measured by a standard microdilution method. […] The fungal strains tested included Cryptococcus neoformans H99, Cryptococcus neoformans ATCC 90112 and Candida albicans ATCC 10231. All tests were performed in duplicate.

Structure (SMILES)	% Inhibition LPL, Membrane-bound Enzyme ([1]; 2.5 μM)	% Inhibition LPTA, Membrane-bound Enzyme ([1]; 2.5 μM)	% Inhibition LPL, Membrane-bound Enzyme ([1]; 25 μM)	% Inhibition LPTA, Membrane-bound Enzyme ([1]; 25 μM)	% Inhibition LPL, Membrane-bound Enzyme ([1]; 250 μM)	% Inhibition LPTA, Membrane-bound Enzyme ([1]; 250 μM)	antifungal / fungicidal activity, in words [2]
CCCC[P+](CCCC)(CCCC)CCCCCCCCCCCC[P+](CCCC)(CCCC)CCCC [Compound 1, 1,12-bis(tributylphosphonium)dodecane dibromide]	0%	0%	0%	0%	0%	0%	
CCCC[N+](CCCC)(CCCC)CCCCCCCCCCCC[N+](CCCC)(CCCC)CCCC [Compound 3, 1,12-bis(tributylammonium)do-decane dibromide]							fungicidal activity
